Laboratory results reported in PubChem BioAssay (NCI).
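Step 1: Grow cells in 96-well plates. Step 2: Expose to compound for 48 hours at 5 concentrations. Step 3: Interpolate endpoints linearly; if unreached, use highest concentration. At the TGI there is no net growth.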

What was measured:
Assay in all cases: NCI anticancer screen, dose series, 48 h
XF 498 CNS = system: XF 498 CNS
HOP-18 NSCLC = system: HOP-18 NSCLC
LXFL 529 NSCLC = system: LXFL 529 NSCLC
DLD-1 colon = system: DLD-1 colon
DMS 114 small cell lung = system: DMS 114 small cell lung
KM20L2 colon = system: KM20L2 colon
SNB-78 CNS = system: SNB-78 CNS
T-47D breast = system: T-47D breast
PC-3 prostate = system: PC-3 prostate
HS 578T breast = system: HS 578T breast

| SMILES | TGI (XF 498 CNS) | TGI (HOP-18 NSCLC) | TGI (LXFL 529 NSCLC) | TGI (DLD-1 colon) | TGI (DMS 114 small cell lung) | TGI (KM20L2 colon) | TGI (SNB-78 CNS) | TGI (T-47D breast) | TGI (PC-3 prostate) | TGI (HS 578T breast) |
| --- | --- | --- | --- | --- | --- | --- | --- | --- | --- | --- |
| Cc1ccc(SSCCCS(=O)O)cc1 | > 100 µM | > 100 µM | > 100 µM | > 100 µM | 37.1 µM | > 100 µM | – | – | – | – |
| CCSC1(SCC)CCN(C=NC(C)(C)C)C1 | > 100 µM | > 100 µM | > 100 µM | > 100 µM | > 100 µM | > 100 µM | > 100 µM | – | – | – |
| CC(C)(O)[C@@H]1CCC(C)([C@H]2[C@@H](O)CC3(C)C4CC(OC5OC(CO)C(O)C(O)C5O)C5C(C)(C)[C@@H](OC6OCC(O)C(O)C6O)CC[C@@]56C[C@@]46CC[C@]23C)O1 (some centres undefined) | > 100 µM | > 100 µM | > 100 µM | > 100 µM | > 100 µM | > 100 µM | > 100 µM | – | – | – |
| C=C1C(=O)OC2CCCCC3OC3C12 (centres undefined) | 24.7 µM | 23.3 µM | 20.2 µM | 23.4 µM | – | 22.8 µM | 56.5 µM | – | – | – |
| O=C1C=C2S[C@H]3C[C@]2(C=C1Br)c1c(c(O)c2c4c1=NCCC=4C=N2)N3 | 2.78 µM | 3.23 µM | 0.395 µM | 2.06 µM | 0.404 µM | 1.93 µM | 3.79 µM | 0.89 µM | 4.52 µM | 3.48 µM |
| OC1CN(OC/C=C/c2ccccc2)CC(O)C1O (centres undefined) | > 100 µM | > 100 µM | > 100 µM | > 100 µM | > 100 µM | > 100 µM | > 100 µM | – | – | – |
| COc1c(OC(C)=O)cc2c(OC(C)=O)c1CC(C)CC(OC)C(O)C(C)/C=C(\C)C(OC(N)=O)C(OC)/C=C\C=C(/C)C(=O)N2 (centres undefined) | > 100 µM | > 100 µM | > 100 µM | > 100 µM | > 100 µM | > 100 µM | > 100 µM | – | – | – |
| CCCOc1ccc(/C(Cl)=C(\C=O)c2ccc(OC)c(OC)c2)cc1OCCC | 33.1 µM | > 100 µM | 80.9 µM | > 100 µM | 25.3 µM | > 100 µM | > 100 µM | – | – | – |
| COc1ccc2c(=O)c([Se]c3coc4cc(OC)ccc4c3=O)coc2c1 | > 100 µM | > 100 µM | > 100 µM | > 100 µM | 42.9 µM | > 100 µM | 67 µM | – | – | – |
| O=c1[nH]c(=S)[nH]c2c1sc(=S)n2-c1ccccc1 | > 100 µM | > 100 µM | > 100 µM | > 100 µM | > 100 µM | > 100 µM | > 100 µM | – | – | – |
| OC(c1ccccc1)(c1ccccc1)c1ccccn1 | > 100 µM | > 100 µM | > 100 µM | > 100 µM | > 100 µM | > 100 µM | > 100 µM | – | – | – |
| N=C(N)n1ncc(Cl)c(Cl)c1=O | 3.86 µM | 2.86 µM | 3.31 µM | 5.24 µM | 3.66 µM | 19.3 µM | 3.98 µM | – | – | – |
| COC(=O)CCC(NC(=S)N/N=C(\C)c1ccccn1)C(=O)OC (centres undefined) | > 100 µM | > 100 µM | > 100 µM | > 100 µM | 75.8 µM | > 100 µM | – | – | – | – |
| CCOC(=O)C1=C(Nc2ccccc2)OC/C1=N\NC(=O)Cc1ccccc1 | > 50 µM | > 50 µM | > 50 µM | > 50 µM | > 50 µM | > 50 µM | > 50 µM | – | – | – |
| O=C(CCc1nnc2s/c(=C\c3ccccc3)c(=O)n12)Nc1cc(Cl)ccc1Cl | > 100 µM | > 100 µM | > 100 µM | > 100 µM | > 100 µM | > 100 µM | > 100 µM | – | – | – |
| CCc1cccc(C(C)CC)c1N=C(NC(=O)c1ccccc1C(=O)NC(=Nc1c(CC)cccc1C(C)CC)SC)SC (centres undefined) | > 100 µM | > 100 µM | > 100 µM | > 100 µM | – | 79.6 µM | > 100 µM | – | – | – |
| C/C(=N\NC(=O)CC(=O)Nc1ccc(C)cc1)c1cc2ccccc2oc1=O | > 100 µM | > 100 µM | – | > 100 µM | > 100 µM | > 100 µM | – | – | – | – |
| Cc1c2ccccc2c(C)c2c3c(ccc12)C(=O)C=CC3=O | 31.6 µM | > 69.3 µM | 31.5 µM | 40.8 µM | 25.8 µM | > 100 µM | 38 µM | – | – | – |
| NC(=O)c1ccccc1NC(=O)C(=O)C(C(=O)c1ccc2ccccc2c1)C1OC(=O)c2ccccc21 (centres undefined) | 12.8 µM | 22.7 µM | 21.9 µM | – | – | 81.4 µM | > 100 µM | – | – | – |
